Results taken from PubChem BioAssay (NCI).
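Briefly, cells in 96-well plates were exposed to five compound concentrations for 48 h, and endpoints were estimated by linear interpolation. GI50 marks 50% less growth. Definition used: TGI = concentration required for complete inhibition of growth.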

Tests used:
Assay in all cases: NCI-60 cell line screen, 48 h
CCRF-CEM leukemia = test system: CCRF-CEM leukemia
KM12 colon = test system: KM12 colon
M14 melanoma = test system: M14 melanoma
MCF7 breast = test system: MCF7 breast
MOLT-4 leukemia = test system: MOLT-4 leukemia
PC-3 prostate = test system: PC-3 prostate
SF-539 CNS = test system: SF-539 CNS
SK-OV-3 ovarian = test system: SK-OV-3 ovarian
SNB-75 CNS = test system: SNB-75 CNS
TK-10 renal = test system: TK-10 renal

| SMILES | GI50 (CCRF-CEM leukemia) [µM] | TGI (CCRF-CEM leukemia) [µM] | GI50 (KM12 colon) [µM] | TGI (KM12 colon) [µM] | GI50 (M14 melanoma) [µM] | TGI (M14 melanoma) [µM] | GI50 (MCF7 breast) [µM] | TGI (MCF7 breast) [µM] | GI50 (MOLT-4 leukemia) [µM] | TGI (MOLT-4 leukemia) [µM] | GI50 (PC-3 prostate) [µM] | TGI (PC-3 prostate) [µM] | GI50 (SF-539 CNS) [µM] | TGI (SF-539 CNS) [µM] | GI50 (SK-OV-3 ovarian) [µM] | TGI (SK-OV-3 ovarian) [µM] | GI50 (SNB-75 CNS) [µM] | TGI (SNB-75 CNS) [µM] | GI50 (TK-10 renal) [µM] | TGI (TK-10 renal) [µM] |
| --- | --- | --- | --- | --- | --- | --- | --- | --- | --- | --- | --- | --- | --- | --- | --- | --- | --- | --- | --- | --- |
| NC(=O)C(Br)CBr (stereo not given) | 1.05 | 6.93 | 7.63 | 21 | 1.63 | 3.02 | 2.18 | 11.5 | 1.42 | 4.15 | 2.51 | 11.7 | 3.01 | 10.3 | 12 | 25.1 | 5.3 | 19.9 | 2.24 | 6.33 |
| CCON=C1C(C)(C)C(C)(C)C(C)(C)C1(C)C |  | > 100 |  | > 100 |  | > 100 |  | > 100 |  | > 100 |  | > 100 |  | > 100 |  | > 100 |  | > 100 |  | > 100 |
| COC(=O)Nc1nc2ccc(Oc3ccc(NC(=O)Nc4cccc(Br)c4)cc3)cc2[nH]1 | 1.59 | > 25 | 0.119 | 3.97 | 2.12 | > 17.8 | 0.22 | 3.77 | 4.03 | > 15.4 | 1.85 | > 12.7 | 2.04 | > 20.8 | 2.95 | 15.3 | 0.781 | 6.13 | 4.66 | 12 |
| CCOC(=O)c1cc2c(n1Cc1cc(OC)cc(OC)c1)-c1oncc1CCC2 | 0.0542 | > 100 | 0.0472 | > 20.5 | 0.057 | > 100 | 0.0401 | > 100 | 0.387 | > 100 | 0.0644 | > 100 | 0.0495 | 0.203 | 0.108 | > 100 | 0.0276 | > 100 |  | > 100 |
| O=S1(=O)N(Cc2ccccc2)[C@@H](Cc2ccccc2)C2O[C@H]2[C@H](Cc2ccccc2)N1Cc1ccccc1 (stereo not given in full) | > 7.5 | > 7.5 | 7.19 | > 7.5 | > 7.5 | > 7.5 | 4.27 | > 7.5 | 4.12 | > 7.5 | 3.06 | > 7.5 | > 7.5 | > 7.5 | > 7.5 | > 7.5 | > 7.5 | > 7.5 | 3.9 | > 7.5 |
| Cc1[nH]c(C(=O)Nc2ccc(C(=O)N3CCNCC3)cc2OC(C)C)c(Cl)c1Cl | 2.57 | 6.94 | 1.84 | 3.46 | 1.94 | 3.57 | 1.8 | 3.59 | 2.32 | 5.1 | 2.02 | 5.44 | 1.73 | 3.19 |  |  | 3.31 | 14.1 | 1.8 | 3.32 |
| CN(C)/C=C/c1nnnn1-c1ccc(Cl)cc1 | 4.65 | 42.4 | 22 | 64.8 | 5.21 | 44.1 | 6.03 | 24.8 | 3.51 | > 100 | 6.76 | 35.5 | 16.5 | 44.4 | 24.1 | 81.6 | 25.1 | > 100 | 25.4 | 80.4 |
| CNC(=O)c1c(NC(=O)c2cccc(C(F)(F)F)c2)sc2c1CCC(=O)C2 | 0.113 | 1.49 | 0.423 | 1.96 | 0.417 | 4 | 0.283 | 2.84 | 0.356 | 4.63 | 0.139 | 1.19 | 0.339 | 1.67 | 2.22 | 8.24 | 0.575 | 5.27 | 0.469 | > 40.8 |
| COc1ccc(-c2nsc3c2NC(=O)CC3c2ccc3c(c2)OCO3)cc1 (stereo not given) | 1.09 | 8.49 | 0.645 | > 100 | 0.715 | > 100 | 0.367 | > 100 | 1.29 | 18.7 | 2.01 | > 100 | 1.05 | 3.7 | 2.33 | > 100 | 1.49 | 9.97 | 8.25 | > 100 |
| C[C@@H]1COCCN1c1nc(-c2cnc(N)cc2C(F)F)nc(N2[C@H](C)COC[C@@H]2C)n1 | 0.431 | 21.2 | 0.423 | 13.8 | 0.3 | 11.7 | 0.115 | 11.4 | 0.295 | 9.15 | 0.215 | 14.4 | 0.264 | 6.66 | 0.166 | 1.34 | 0.0682 | 0.571 | 0.209 | 4.51 |
| CCc1ccc(-c2ccc(=O)n(-c3ccc(S(N)(=O)=O)cc3)n2)cc1 | 1.22 | > 100 | 0.68 | > 100 | 0.764 | > 22.2 | 1.46 | > 43.5 | 0.884 | > 90 | 1.35 | > 100 | 3.15 | 32.1 | 4.44 | > 100 | 2.96 | 28 | 13.2 | 38.3 |
| O=CN1N=C(c2ccc(Nc3ccnc4cc(Cl)ccc34)cc2)CC1c1ccccc1 (stereo not given) | 2.51 | 8.55 | 3.41 | 56.9 | 4.12 | 31 | 3.42 | 26.7 | 2.28 | 6.4 | 4.76 | > 100 | 4.57 | 18.7 | 11.3 | > 100 | 5.03 | > 100 | 9.51 | 38.5 |
| O=C(Nc1ncc(Cc2ccccc2)s1)c1ccc2c(c1)OCCCO2 | 0.524 | > 100 | 0.372 | > 100 | 0.374 | > 100 | 0.374 | > 100 | 0.478 | > 100 | 0.927 | > 100 | 0.49 | 4.27 | 3.17 | > 100 | 0.613 | > 29.3 | 6.17 | > 100 |
| COc1cc([C@@H]2c3cc4c(cc3C(Br)[C@H]3COC(=O)[C@H]23)OCO4)cc(OC)c1OC (stereo not given in full) | 0.363 | > 100 | 0.0909 | 0.438 | 0.22 |  | 0.168 | > 100 | 0.431 | > 100 | 0.438 | > 100 | 0.185 | 0.598 | 0.312 | > 100 | 0.271 | > 100 |  | > 100 |
| CCCCCCCCCCCCCCCC(=O)OCC1OC(n2cnc3c(=S)nc(N)[nH]c32)C(OC(=O)CCCCCCCCCCCCCCC)C1OC(=O)CCCCCCCCCCCCCCC (stereo not given) | 1.85 | > 50 | 9.48 | > 50 | 1.5 | > 17.9 | 1.65 | > 26.1 | 2.95 | > 50 | 9.96 | > 50 | 6.95 | > 50 | 1.55 | > 27.8 | 4.38 | > 50 | 1.99 | > 50 |
| COc1ccc(Nc2ccnc(NCCNc3ccnc4cc(Cl)ccc34)n2)cc1 | 1.65 | 8.23 | 3.72 | 15.2 | 1.46 | 3.41 | 1.53 | 5.2 | 3.46 | 16.2 | 1.85 | 16 | 1.59 | 3.2 | 7.21 | 20.5 | 1.17 | 2.52 | 3.33 | 10.5 |
| C[C@]12CC/C(=N\N)C[C@@H]1CC[C@@H]1[C@@H]2CC[C@]2(C)/C(=N/N)CC[C@@H]12 | > 100 | > 100 | > 100 | > 100 | > 100 | > 100 | > 100 | > 100 | > 100 | > 100 | > 100 | > 100 | > 100 | > 100 | > 100 | > 100 | > 100 | > 100 | > 100 | > 100 |
| COc1cc2c(c(OC)c1OC)-c1ccc(NNC(=S)N(Cc3cccc(C[N+](Cc4cccc(CNC56CC7CC(CC(C7)C5)C6)c4)(Cc4cccc(CNC56CC7CC(CC(C7)C5)C6)c4)Cc4cccc(CN(C(=S)NNc5ccc6c(cc5=O)[C@@H](NC(C)=O)CCc5cc(OC)c(OC)c(OC)c5-6)C56CC7CC(CC(C7)C5)C6)c4)c3)C34CC5CC(CC(C5)C3)C4)c(=O)cc1[C@@H](NC(C)=O)CC2 (stereo not given in full) | 0.904 | 2.47 | 1.08 | 4.52 | 0.822 | 2.26 | 0.862 | 3.44 | 0.562 | 1.93 | 1.45 | 5.64 | 1.14 | 4.3 | 3 | 7.51 | 1.4 | 6.68 | 3.66 | 8.34 |
